Experimental data reported in publication PMC11767077, “Experimental Validation of Antiobesogenic and Osteoprotective Efficacy of Ginsenoside CK via Targeting Lipid and Atherosclerosis Pathways” (Life, 2024).
Values after ≈ are worked out from the molar mass of the structure shown.

Molecular target: α-glucosidase
Assay: p-NPG colorimetric enzyme assay, […] nm, commercial α-glucosidase
Assay type: biochemical

**Q.** With `CC(C)=CCC[C@](C)(O[C@@H]1O[C@H](CO)[C@@H](O)[C@H](O)[C@H]1O)[C@H]1CC[C@]2(C)[C@@H]1[C@H](O)C[C@@H]1[C@@]3(C)CC[C@H](O)C(C)(C)[C@@H]3CC[C@]12C` [CK, ginsenoside CK] as the compound, how does the IC50 read?
**A.** 22.83 µg/mL (≈ 36.7 µM)
